Results published in patent US10865191B2, “Heterocyclic compounds useful as modulators of TNF alpha” (BRISTOL-MYERS SQUIBB COMPANY, priority 2015, dated 2020).

Biological target: TNFα (Homo sapiens, UniProt P01375)
Assay: TNF induced HEK-Blue assay (NF-kB-driven secreted alkaline phosphatase reporter)
Assay type: cell-based
Details: TNFα 0.5 ng/mL, HEK-Blue-CD40L cells, 18 h; read-out: TNF induced HEK-Blue assay IC50 value
In short: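 HEK-Blue-CD40L cells (NF-kB-driven SEAP reporter), 20,000/well, added after 30 min pre-incubation of compound (0.004–25 μM final) with TNFα 0.5 ng/mL final at 37 °C; 18 h incubation. SEAP read with QUANTI-Blue at 620 nm; IC50 from 4-parameter logistic fit, normalized to unstimulated and stimulated DMSO controls.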

TNFα, sequence (P01375 77-233 limits assumed): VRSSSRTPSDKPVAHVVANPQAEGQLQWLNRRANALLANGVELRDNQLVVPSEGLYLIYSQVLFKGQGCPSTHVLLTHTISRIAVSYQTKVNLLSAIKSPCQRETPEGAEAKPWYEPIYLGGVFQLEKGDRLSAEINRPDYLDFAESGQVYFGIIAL

Compound: Cc1nc2cc(F)c(-c3cnc(C(C)(C)O)nc3)nc2c(N[C@@H](c2cc(C(O)CO)ccc2F)C(F)F)c1Cl (stereo partly drawn) [Example 491, 1-(3-((S)-1-((3-chloro-7-fluoro-6-(2-(2-hydroxypropan-2-yl)pyrimidin-5-yl)-2-methyl-1,5-naphthyridin-4-yl)amino)-2,2-difluoroethyl)-4-fluorophenyl)ethane-1,2-diol]
- IC50: < 1000 nM

Compound: CC(C)(O)c1ncc(-c2nc3c(N[C@@H](c4cc(C(O)CO)ccc4F)C(F)F)c(Cl)cnc3cc2F)cn1 (stereo partly drawn) [Example 492, 1-(3-((S)-1-((3-chloro-7-fluoro-6-(2-(2-hydroxypropan-2-yl)pyrimidin-5-yl)-1,5-naphthyridin-4-yl)amino)-2,2-difluoroethyl)-4-fluorophenyl)ethane-1,2-diol]
- IC50: < 1000 nM

Compound: CC(C)(O)c1ncc(-c2nc3c(N[C@@H](c4cc(C(N)=O)ccc4F)C(F)F)c(Cl)cnc3cc2F)cn1 [Example 493, (S)-3-(1-((3-chloro-7-fluoro-6-(2-(2-hydroxypropan-2-yl)pyrimidin-5-yl)-1,5-naphthyridin-4-yl)amino)-2,2-difluoroethyl)-4-fluorobenzamide]
- IC50: < 1000 nM

Compound: C=Cc1ccc(F)c([C@H](Nc2c(Cl)c(C)nc3cc(F)c(-c4cnc(C(C)(C)O)nc4)nc23)C(F)F)c1 [Example 494, (S)-2-(5-(7-chloro-8-((2,2-difluoro-1-(2-fluoro-5-vinylphenyl)ethyl)amino)-3-fluoro-6-methyl-1,5-naphthyridin-2-yl)pyrimidin-2-yl) propan-2-ol]
- IC50: < 1000 nM

Compound: C=Cc1ccc(F)c([C@H](Nc2c(Cl)cnc3cc(F)c(-c4cnc(C(C)(C)O)nc4)nc23)C(F)F)c1 [Example 495, (S)-2-(5-(7-chloro-8-((2,2-difluoro-1-(2-fluoro-5-vinylphenyl)ethyl)amino)-3-fluoro-1,5-naphthyridin-2-yl)pyrimidin-2-yl)propan-2-ol]
- IC50: < 1000 nM

Compound: Cc1nc2cc(F)c(-c3cnc(C(C)(C)O)nc3)nc2c(N[C@@H](c2cc(CO)ccc2F)C(F)F)c1Cl [Example 496, (S)-2-(5-(7-chloro-8-((2,2-difluoro-1-(2-fluoro-5-(hydroxymethyl)phenyl)ethyl)amino)-3-fluoro-6-methyl-1,5-naphthyridin-2-yl)pyrimidin-2-yl)propan-2-ol]
- IC50: < 1000 nM

Compound: Cc1nc2cc(F)c(-c3cnc(C(C)(C)O)nc3)nc2c(N[C@@H](c2cc(C(N)=O)ccc2F)C(F)F)c1Cl [Example 497, (S)-3-(1-((3-chloro-7-fluoro-6-(2-(2-hydroxypropan-2-yl)pyrimidin-5-yl)-2-methyl-1,5-naphthyridin-4-yl)amino)-2,2-difluoroethyl)-4-fluorobenzamide]
- IC50: < 1000 nM

Compound: CC(C)(O)c1ncc(-c2nc3c(N[C@@H](c4cc(C#N)ccc4F)C(F)F)c(Cl)cnc3cc2F)cn1 [Example 498, (S)-3-(1-((3-chloro-7-fluoro-6-(2-(2-hydroxypropan-2-yl)pyrimidin-5-yl)-1,5-naphthyridin-4-yl)amino)-2,2-difluoroethyl)-4-fluorobenzonitrile]
- IC50: < 1000 nM

Compound: Cc1nc2cc(F)c(-c3cnc(C(C)(C)O)nc3)nc2c(N[C@@H](c2cc(C#N)ccc2F)C(F)F)c1Cl [Example 499, (S)-3-(1-((3-chloro-7-fluoro-6-(2-(2-hydroxypropan-2-yl)pyrimidin-5-yl)-2-methyl-1,5-naphthyridin-4-yl)amino)-2,2-difluoroethyl)-4-fluorobenzonitrile]
- IC50: < 1000 nM

Compound: Cc1nc2ccc(-c3ccc(C(C)(C)O)cc3)cc2c(N[C@H](C)c2ccccc2F)c1Cl [Example 500, (R)-2-(4-(3-chloro-4-((1-(2-fluorophenyl)ethyl)amino)-2-methylquinolin-6-yl)phenyl)propan-2-ol]
- IC50: < 1000 nM

Compound: CC(C)(O)c1ncc(-c2nc3c(N[C@@H](c4cc(CO)ccc4F)C(F)F)c(Cl)cnc3cc2F)cn1 [Example 501, (S)-2-(5-(7-chloro-8-((2,2-difluoro-1-(2-fluoro-5-(hydroxymethyl)phenyl)ethyl)amino)-3-fluoro-1,5-naphthyridin-2-yl)pyrimidin-2-yl)propan-2-ol]
- IC50: < 1000 nM

Compound: Cc1nc2ccc(-c3ccc(C(C)(C)O)cc3)cc2c(NC(C)c2cccs2)c1Cl (stereo not shown) [Example 502, 2-(4-(3-chloro-2-methyl-4-((1-(thiophen-2-yl)ethyl)amino)quinolin-6-yl)phenyl)propan-2-ol]
- IC50: 1000 to 10000 nM

Compound: Cc1nc2ccc(-c3ccc(C(C)(C)O)cc3)cc2c(NC(C)c2ccsc2)c1Cl (stereo not shown) [Example 503, 2-(4-(3-chloro-2-methyl-4-((1-(thiophen-3-yl)ethyl)amino)quinolin-6-yl)phenyl)propan-2-ol]
- IC50: 1000 to 10000 nM

Compound: C[C@@H](Nc1c(Cl)cnc2cc(F)c(-c3cnc(C(C)(C)O)nc3)nc12)c1cc(C(O)CO)ccc1F (stereo partly drawn) [Example 504, 1-(3-((R)-1-((3-chloro-7-fluoro-6-(2-(2-hydroxypropan-2-yl)pyrimidin-5-yl)-1,5-naphthyridin-4-yl)amino)ethyl)-4-fluorophenyl)ethane-1,2-diol]
- IC50: < 1000 nM

Compound: C[C@@H](Nc1c(Cl)cnc2cc(F)c(-c3cnc(C(C)(C)O)nc3)nc12)c1cc(CO)ccc1F [Example 505, (R)-2-(5-(7-chloro-3-fluoro-8-((1-(2-fluoro-5-(hydroxymethyl)phenyl)ethyl)amino)-1,5-naphthyridin-2-yl)pyrimidin-2-yl)propan-2-ol]
- IC50: < 1000 nM

Compound: C[C@@H](Nc1c(Cl)cnc2ccccc12)c1cc(-c2ccc(N(C)C)nc2)ccc1F [Example 506, (R)-3-chloro-N-(1-(5-(6-(dimethylamino)pyridin-3-yl)-2-fluorophenyl)ethyl) quinolin-4-amine]
- IC50: < 1000 nM

Compound: Cc1cncc(-c2ccc(F)c([C@@H](C)Nc3c(Cl)cnc4ccccc34)c2)c1 [Example 507, (R)-3-chloro-N-(1-(2-fluoro-5-(5-methylpyridin-3-yl)phenyl)ethyl)quinolin-4-amine]
- IC50: < 1000 nM

Compound: CCc1ccc(-c2ccc(F)c([C@@H](C)Nc3c(Cl)cnc4ccccc34)c2)cn1 [Example 508, (R)-3-chloro-N-(1-(5-(6-ethylpyridin-3-yl)-2-fluorophenyl)ethyl)quinolin-4-amine]
- IC50: < 1000 nM

Compound: Fc1ccc(Br)cc1[C@H](Nc1c(Cl)cnc2ccccc12)C(F)F [Example 509, (S)—N-(1-(5-bromo-2-fluorophenyl)-2,2-difluoroethyl)-3-chloroquinolin-4-amine]
- IC50: 1000 to 10000 nM

Compound: Fc1ccc(Br)cc1[C@@H](Nc1c(Cl)cnc2ccccc12)C(F)F [Example 510, (R)—N-(1-(5-bromo-2-fluorophenyl)-2,2-difluoroethyl)-3-chloroquinolin-4-amine]
- IC50: 1000 to 10000 nM

Compound: C[C@@H](Nc1c(Cl)cnc2ccccc12)c1cc(-c2cncc(N)c2)ccc1F [Example 511, (R)—N-(1-(5-(5-aminopyridin-3-yl)-2-fluorophenyl)ethyl)-3-chloroquinolin-4-amine]
- IC50: < 1000 nM

Compound: C[C@@H](Nc1c(Cl)cnc2ccccc12)c1cc(-c2cccnc2N)ccc1F [Example 512, (R)—N-(1-(5-(2-aminopyridin-3-yl)-2-fluorophenyl)ethyl)-3-chloroquinolin-4-amine]
- IC50: 10000 to 25000 nM

Compound: COc1cc(-c2ccc(F)c([C@@H](C)Nc3c(Cl)cnc4ccccc34)c2)c(OC)nn1 [Example 513, (R)-3-chloro-N-(1-(5-(3,6-dimethoxypyridazin-4-yl)-2-fluorophenyl)ethyl)quinolin-4-amine]
- IC50: 1000 to 10000 nM

Compound: C[C@@H](Nc1c(Cl)cnc2ccccc12)c1cc(-c2ccc(C#N)nc2)ccc1F [Example 514, (R)-5-(3-(1-((3-chloroquinolin-4-yl)amino)ethyl)-4-fluorophenyl)picolinonitrile]
- IC50: < 1000 nM

Compound: C[C@@H](Nc1c(Cl)cnc2ccccc12)c1cc(-c2ccnnc2)ccc1F [Example 515, (R)-3-chloro-N-(1-(2-fluoro-5-(pyridazin-4-yl)phenyl)ethyl)quinolin-4-amine]
- IC50: 1000 to 10000 nM

Compound: Fc1ccc(Br)cc1CNc1c(Cl)cnc2ccccc12 [Example 516, N-(5-bromo-2-fluorobenzyl)-3-chloroquinolin-4-amine]
- IC50: 10000 to 25000 nM

Compound: COc1ccc(F)c(CNc2c(Cl)cnc3ccccc23)c1 [Example 517, 3-chloro-N-(2-fluoro-5-methoxybenzyl)quinolin-4-amine]
- IC50: 1000 to 10000 nM

Compound: Cc1ccc(-c2ccc(F)c([C@@H](C)Nc3c(Cl)cnc4ccccc34)c2)cn1 [Example 518, (R)-3-chloro-N-(1-(2-fluoro-5-(6-methylpyridin-3-yl)phenyl)ethyl)quinolin-4-amine]
- IC50: < 1000 nM

Compound: C[C@@H](Nc1c(Cl)cnc2ccccc12)c1cc(-c2cnc(C3CC3)nc2)ccc1F [Example 519, (R)-3-chloro-N-(1-(5-(2-cyclopropylpyrimidin-5-yl)-2-fluorophenyl)ethyl) quinolin-4-amine]
- IC50: 1000 to 10000 nM

Compound: COc1ncc(-c2ccc(F)c([C@@H](C)Nc3c(Cl)cnc4ccccc34)c2)cc1C#N [Example 520, (R)-5-(3-(1-((3-chloroquinolin-4-yl)amino)ethyl)-4-fluorophenyl)-2-methoxynicotinonitrile]
- IC50: < 1000 nM

Compound: COc1ncc(-c2ccc(F)c([C@@H](C)Nc3c(Cl)cnc4ccccc34)c2)cc1N [Example 521, (R)—N-(1-(5-(5-amino-6-methoxypyridin-3-yl)-2-fluorophenyl)ethyl)-3-chloroquinolin-4-amine]
- IC50: < 1000 nM

Compound: COc1cncc(-c2ccc(F)c([C@@H](C)Nc3c(Cl)cnc4ccccc34)c2)c1 [Example 522, (R)-3-chloro-N-(1-(2-fluoro-5-(5-methoxypyridin-3-yl)phenyl)ethyl)quinolin-4-amine]
- IC50: < 1000 nM

Compound: CNc1ccncc1-c1ccc(F)c([C@@H](C)Nc2c(Cl)cnc3ccccc23)c1 [Example 523, (R)-3-chloro-N-(1-(2-fluoro-5-(4-(methylamino)pyridin-3-yl)phenyl)ethyl)quinolin-4-amine]
- IC50: < 1000 nM

Compound: C[C@@H](Nc1c(Cl)cnc2ccccc12)c1cc(-c2cncn2C)ccc1F [Example 524, (R)-3-chloro-N-(1-(2-fluoro-5-(1-methyl-1H-imidazol-5-yl)phenyl)ethyl)quinolin-4-amine]
- IC50: < 1000 nM
